# What was measured:
# HeLa cells = test system: HeLa cells; parameters: method as in Liu et al., 2008; conditions: 25 μg/mL for 72 h, ref Liu et al., 2008; cited from earlier work
# [1] = test system: MCF10A (breast epithelial) cells; assay: MTT cytotoxicity assay; assay type: cell-based, human; conditions: MCF10A normal cells
# Protocol: (§1) This study included three epithelial cancerous (AR42J, pancreatic cancer; HeLa, cervical cancer, and MDA‐MB‐231 breast cancer) and two noncancerous epithelial human cells (ARPE‐19, retina; and MCF10A, breast). AR42J (ECACC, Cat No. 93100618) and MDA‐MB‐231 (ATCC, Cat No. HTB‐26) cells were cultured in RPMI media. HeLa cells (ATCC, Cat No. CCl‐2) were cultured in EMEM media. ARPE‐19 (ATCC, Cat No. CRL‐2302) and MCF10A (ATCC, Cat No. CRL‐10317) cells were cultured in DMEM. Each medium consisted of penicillin–streptomycin (1%) and fetal bovine serum (10%). Cells were cultured in a 37°C incubator with 5% CO2 humidification. Cells were cultured in 96‐well plates as 10.000 cells per well. After they reached at 80% confluency, cells were treated with extracts. For this, experiments for each cell included two groups, (1) treated with T. coelesyriacus extracts obtained by methanol for 24 h, 48 h, and 72 h at 3.125, 6.25, 12.5, 25, […], 100, and 200 μg/mL, and (2) treated with T. coelesyriacus extracts obtained by water for 24 h, 48 h, and 72 h at 3.125, 6.25, 12.5, 25, […], 100, and 200 μg/mL. Control wells for each cell were untreated (0 μg/mL). Positive control experiments were performed with cisplatin at the same concentrations with extracts (3.125–100 μg/mL) for 24 h, 48 h, and 72 h. For each dose at each concentration, at least three wells were used as intra‐experimental repeats. The whole experiments for each cell were repeated as two to three independent replications.
# (§2) After treatment with different extracts (at 3.125, 6.25, 12.5, 25, 50, 100, and 200 μg/mL for 24 h, 48 h, and 72 h), media with extracts were removed, and the MTT protocol was applied as before (Cakmak et al., [2021]). MTT was also applied after cisplatin treatment for 24 h, 48 h, and 72 h. The concentrations of cisplatin used were 3.125, 6.25, 12.5, 25, 50, and 100 μg/mL. In this method, 200 μL of media, including 10 μL MTT (3‐(4,5‐dimethylthiazol‐2‐yl)‐2,5‐diphenyltetrazolium bromide), was added to each well and incubated at 37°C for 2.5 h. After incubation, media with MTT were removed, and 150 μL of DMSO was added to each well for dissolving formazan crystals. Subsequently, plates were incubated in the dark on a shaker for 1 h. Absorbances at 570 nm were read. Cell viabilities (as percentages) were calculated according to the viability of untreated cells considered as 100%. If applicable, IC50 values were calculated as before (Uzuner et al., [2021]).
# [2] = test system: AR42J (pancreatic cancer) cells; assay: MTT cytotoxicity assay; assay type: cell-based, human
# Protocol: as §1, §2
# [3] = test system: ARPE‐19 (retinal epithelial) cells; assay: MTT cytotoxicity assay; assay type: cell-based, human; conditions: ARPE19 normal cells
# Protocol: as §1, §2
# [4] = test system: HeLa (cervical cancer) cells; assay: MTT cytotoxicity assay; assay type: cell-based, human
# Protocol: as §1, §2
# [5] = test system: MDA‐MB‐231 (breast cancer) cells; assay: MTT cytotoxicity assay; assay type: cell-based, human
# Protocol: as §1, §2
smiles,measurement,setting,value
N.N.[Cl][Pt][Cl] [cisplatin],cell death,HeLa cells,~90%
same,Ave IC50 values,[1]; 24 h,33.56 µg/mL
same,Ave IC50 values,[1]; 48 h,26.03 µg/mL
same,Ave IC50 values,[1]; 72 h,8.32 µg/mL
same,IC50 value,[2]; 24 h incubation,18.94 µg/mL
same,IC50 value,[2]; 48 h incubation,14.84 µg/mL
same,IC50 value,[2]; 72 h incubation,6.18 µg/mL
same,Ave IC50 values,[3]; 24 h,63.42 µg/mL
same,Ave IC50 values,[3]; 48 h,54.14 µg/mL
same,Ave IC50 values,[3]; 72 h,16.01 µg/mL
same,Ave IC50 values,[4]; 24 h,8.16 µg/mL
same,Ave IC50 values,[4]; 48 h,13.92 µg/mL
same,IC50 value,[4]; 72 h incubation,4.56 µg/mL
same,Ave IC50 values,"[5]; MDA‐MB‐231, 24 h",41.28 µg/mL
same,Ave IC50 values,"[5]; MDA‐MB‐231, 48 h",27.87 µg/mL
same,IC50 value,"[5]; MDA‐MB‐231, 72 h incubation",10.92 µg/mL
